Reference: US11278584B2, “Pharmaceutical composition for preventing and treating senile dementia and preparation method thereof” (priority 2014, dated 2022)
Where a name gives a salt, the structure may show the parent alone.

What was measured:
[1] = system: Scop induced dysmnesia model rats; assay: Jump platform test, scopolamine-induced dysmnesia model rats; format: in vivo, SD Male rats; settings: intragastric 2 weeks, compositions 11.08 g raw medicinal materials/kg, Donepezil 1.17 mg/kg
Procedure: (§1) Animals: SD Male rats, available from Da Shuo Biological Technology Co. LTD, Chengdu City, China, were used. 2. Testing Method
(§2) Rats were randomly divided into Normal control group, Scop Model group, Positive control group (Donepezil, 1.17 mg/kg) and Experimental group (administered with a pharmaceutical composition of Example 1 in an amount of 11.08g raw medicinal materials per kg body weight). Before experiments, rats were fed by intragastric administration for 2 weeks. The normal control group and the model group were fed the same volume of distilled water. On day 9, rats were trained in the pool of Morris 2 times per day. On day 14, rats were subjected to do Morris water Maze and jump platform testing.
(§3) On experiment day, rats were intragastrically administered. 30 Minutes later, they were administered with scopolamine hydrobromide (HBr) by intraperitoneal injections (2 mg·kg^−1 for two days and then 1 mg·kg^−1 on day 3). 20 Minutes later, rats were subjected to Morris water Maze testing. […] Their swimming performance was tracked and recorded by a camera. The travel path, time spent and speed of movement of rats in 90 s were recorded by a computer automatically, and the swimming distance and escape latency for finding the platform were calculated. […] The first step down latency (SDL) and escape latency (the time required to escape from electric shock, EL) of rats were recorded.

[2] = system: Scop induced dysmnesia model mice; assay: Morris water maze test, scopolamine-induced dysmnesia model mice; format: in vivo; settings: KM mice, intragastric 2 weeks, compositions 31.66 g raw medicinal materials/kg (J: high dosage), Donepezil 1.67 mg/kg
Text: Animals: KM mice, available from Da Shuo Biological Technology Co. LTD, Chengdu City, China, were used.
Before experiments, mice of experimental group were fed by intragastric administration of a pharmaceutical composition for 2 weeks, while the normal control group and the model group were fed the same volume of distilled water. On day 9, mice were trained in the pool of Morris, 2 times per day. On day 14, mice were subjected to Morris water Maze testing.
On experiment day, mice were fed by intragastric administration. 30 Minutes later, they were administered with Scop in a dosage of 3 mg·kg^−1 via intraperitoneal injection. 20 Minutes later, the mice were subjected to Morris water Maze testing. The normal control group was intraperitoneally injected with the same volume of saline. The swimming performance of mice were tracked and recorded by a camera. The travel path, time spent and speed of movement of mice in 300 s were recorded by a computer automatically. The maximum latency was set as 300 s. The recording stopped after 300 s. The escape latency and swimming distance for looking for the platform were recorded.

[3] = system: Scop induced dysmnesia model rats; assay: Morris water maze test, scopolamine-induced dysmnesia model rats; format: in vivo, SD Male rats; settings: intragastric 2 weeks, compositions 11.08 g raw medicinal materials/kg, Donepezil 1.17 mg/kg
Procedure: as §1, §2, §3

**Q.** Which results are given for `COc1cc2c(cc1OC)C(=O)C(CC1CCN(Cc3ccccc3)CC1)C2` (stereo not drawn) [Positive control, Donepezil Hydrochloride]?
**A.** SDL(s) (first step down latency) ([1]; model control 16.04): 28.67 s; EL(s) (escape latency from electric shock) ([1]; model control 130.63): 109.17 s; Escape latency ([2]; model control 176.54): 141.42 s; Swimming Distance (cm) ([2]; model control 3646.54): 2738.70 cm; Escape latency ([3]; model control 49.63): 37.27 s; Distance (cm) ([3]; model control 2173.42): 1647.50 cm
